Laboratory results reported in ChEMBL document CHEMBL5113390, “Design, synthesis and antitumor evaluation of novel 1H-indole-2-carboxylic acid derivatives targeting 14-3-3η protein” (Eur J Med Chem, 2022).

Legend:
Bel-7402 = assay: Antiproliferative activity against human Bel-7402 cells assessed as reduction in cell viability incubated for 72 hrs by MTT assay; type: functional, cell-based; conditions: Bel-7402, 72 h
Bel7402/5-FU = assay: Antiproliferative activity against human BEL-7402/5-FU cells overexpressing 14-3-3 eta assessed as reduction in cell viability incubated for 72 hrs by MTT assay; type: functional, cell-based
HepG2 = assay: Antiproliferative activity against human HepG2 cells assessed as reduction in cell viability incubated for 72 hrs by MTT assay; type: functional, cell-based; conditions: HepG2, 72 h
SNU-387 = assay: Antiproliferative activity against human SNU-387 cells assessed as reduction in cell viability incubated for 72 hrs by MTT assay; type: functional, cell-based; conditions: SNU-387, 72 h
Hep 3B2 = assay: Antiproliferative activity against human Hep3B cells assessed as reduction in cell viability incubated for 72 hrs by MTT assay; type: functional, cell-based
SMMC-7721 = assay: Antiproliferative activity against human SMMC-7721 cells assessed as reduction in cell viability incubated for 72 hrs by MTT assay; type: functional, cell-based; conditions: SMMC-7721, 72 h
14-3-3 protein eta = biological target: T1, 14-3-3 protein eta (Homo sapiens, UniProt Q04917); assay: Binding affinity to 14-3-3 eta (unknown origin) assessed as dissociation constant by biolayer interferometry assay
T1 sequence (Q04917 whole entry): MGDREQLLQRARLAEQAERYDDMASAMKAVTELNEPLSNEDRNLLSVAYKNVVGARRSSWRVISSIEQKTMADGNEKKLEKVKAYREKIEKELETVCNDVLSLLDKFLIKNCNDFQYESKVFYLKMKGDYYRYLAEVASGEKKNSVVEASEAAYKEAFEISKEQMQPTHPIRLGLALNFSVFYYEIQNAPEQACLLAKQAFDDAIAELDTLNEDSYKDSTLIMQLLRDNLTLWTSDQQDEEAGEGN

IC50 (Bel-7402) [µM]	IC50 (Bel7402/5-FU) [µM]	IC50 (HepG2) [µM]	IC50 (SNU-387) [µM]	IC50 (SMMC-7721) [µM]	Kd (14-3-3 protein eta) [µM]	Structure (SMILES)	IC50 (Hep 3B2) [µM]
> 50	–	–	–	–	–	COc1cccc(CNCc2c(C(=O)O)n(Cc3ccccc3)c3ccccc23)c1	–
9.27	15.2	4.92	6.86	5.03	22	COc1ccc(Cn2c(C(=O)O)c(CNCc3cccc(O)c3)c3ccc(C(C)C)cc32)cc1	6.6
58.9	–	–	–	–	–	CCNC(=O)c1c(CNCc2ccc(OC)cc2)c2ccccc2n1Cc1ccc(OC)cc1	–
> 50	–	–	–	–	–	COc1cccc(CNCc2c(C(=O)O)n(Cc3ccc(O)cc3)c3cc(C)ccc23)c1	–
> 50	–	–	–	–	160	COc1cccc(CNCc2c(C(=O)O)n(Cc3ccc(F)cc3)c3ccccc23)c1	–
> 50	–	–	–	–	–	COc1cccc(CNCc2c(C(=O)O)n(Cc3ccc(O)cc3)c3ccccc23)c1	–
9.57	> 50	7.4	9.01	11.3	–	COc1cccc(CNCc2c(C(=O)O)n(Cc3ccc(N)cc3)c3cc(C(C)C)ccc23)c1	11.2
5.9	5.92	3.18	5.09	3.53	55	COc1cccc(CNCc2c(C(=O)O)n(Cc3ccccc3)c3cc(C(C)C)ccc23)c1	4.11
> 50	–	–	–	–	56	COc1ccc(Cn2c(C(=O)O)c(CNC(=O)c3cccc(OC)c3)c3ccc(C)cc32)cc1	–

Second part, the compound before the results:

Structure (SMILES)	IC50 (Bel-7402) [µM]	IC50 (Bel7402/5-FU) [µM]	IC50 (HepG2) [µM]	IC50 (SNU-387) [µM]	IC50 (SMMC-7721) [µM]	Kd (14-3-3 protein eta) [µM]	IC50 (Hep 3B2) [µM]
COc1ccc(Cn2c(C(=O)O)c(CNCc3ccc(O)c(OC)c3)c3ccc(C(C)C)cc32)cc1	8.38	7.9	3.66	5.4	5.83	–	4.71
O=[As][As+](=O)[O-] (centres undefined) [ARSENIC TRIOXIDE]	–	–	–	–	–	110	–
COc1cccc(CNCc2c(C(=O)O)n(Cc3ccc(C)cc3)c3ccccc23)c1	21.5	9.33	14	14.3	6.27	–	14.5
COc1ccc(Cn2c(C(=O)O)c(CNCc3cccc(O)c3)c3ccc(C)cc32)cc1	19.8	> 50	4.52	9.91	34.8	–	11.8
COc1cccc(CNCc2c(C(=O)O)n(Cc3ccc(O)cc3)c3cc(C(C)C)ccc23)c1	7.08	> 50	1.63	5.13	3.73	74	5.34
COc1cccc(CNCc2c(C(=O)O)n(Cc3ccccc3)c3cc(C)ccc23)c1	12.5	12.1	5.21	8.17	4.72	–	7.31
COc1ccc(Cn2c(C(=O)O)c(CNCc3cccc(OC)c3)c3ccc(C(F)F)cc32)cc1	> 50	–	–	–	–	–	–
COc1ccc(Cn2c(C(=O)O)c(CNCc3cccc(OC)c3)c3ccc(C(F)(F)F)cc32)cc1	> 50	–	–	–	–	–	–
CNC(=O)c1cc(Oc2ccc(NC(=O)Nc3ccc(Cl)c(C(F)(F)F)c3)cc2)ccn1 [SORAFENIB]	6.03	13.3	3.3	12.3	4.88	–	5.49
COc1cccc(CNCc2c(C(=O)O)n(Cc3ccc(C)cc3)c3cc(C)ccc23)c1	5.67	7.31	5.05	5.29	3.44	–	6.33
COc1ccc(Cn2c(C(=O)O)c(CNCc3cccc(OC)c3)c3ccc(C)cc32)cc1	9.83	–	–	–	–	–	–
COc1ccc(Cn2c(C(=O)O)c(CNCc3ccc(O)c(OC)c3)c3ccccc32)cc1	> 50	–	–	–	–	140	–
COc1cccc(CNCc2c(C(=O)O)n(Cc3ccccc3F)c3ccccc23)c1	> 50	–	–	–	–	–	–
COc1cccc(CNCc2c(C(=O)O)n(Cc3ccccc3F)c3cc(C(C)C)ccc23)c1	5.59	5.21	3.3	6.09	3.23	37	5.19
COc1ccc(Cn2c(C(=O)O)c(CNCc3cc(OC)ccc3O)c3ccc(C)cc32)cc1	> 50	–	–	–	–	–	–
COc1ccc(Cn2c(C(=O)O)c(CNCc3cccc(OC)c3)c3ccccc32)cc1	52.9	–	–	–	–	–	–
COc1cccc(CNCc2c(C(=O)O)n(Cc3ccccc3F)c3cc(C)ccc23)c1	> 50	–	–	–	–	> 200	–
COc1ccc(Cn2c(C(=O)O)c(CNCc3cccc(O)c3)c3ccccc32)cc1	> 50	–	–	–	–	–	–
COc1ccc(Cn2c(C(=O)O)c(CNCc3ccc(O)c(OC)c3)c3ccc(C)cc32)cc1	13.3	> 50	3.74	6.15	7.73	> 200	8.2
COc1ccc(Cn2c(C(=O)O)c(CN(C)Cc3cccc(OC)c3)c3ccc(C)cc32)cc1	33	7.47	15.4	20.1	11	> 200	14.5
